Experimental findings from patent US7622581B2, “6,7,8,9-substituted 1-phenyl-1,5-dihydro-pyrido[3,2-b]indol-2-ones useful as anti-infective pharmaceutical agents” (Tibotec Pharmaceuticals Ltd., priority 2004, dated 2009) are described below.

The subject of this experiment is HIV. As to the kind of experiment: Cellular assay: anti-viral activity in HIV-infected MT4 cells (MTT viability). It counts as cell-based. The following applies: Human immunodeficiency virus 1, 120 h, five days incubation, MTT readout, negative logarithm of EC50 (protection of 50% of cells from cytopathogenic effect of the virus). The method, then: The compounds of the present invention were examined for anti-viral activity in a cellular assay, which was performed according to the following procedure.
HIV- or mock-infected MT4 cells were incubated for five days in the presence of various concentrations of the inhibitor. At the end of the incubation period, the replicating virus in the control cultures has killed all HIV-infected cells in the absence of any inhibitor. Cell viability was determined by measuring the concentration of MTT, a yellow, water soluble tetrazolium dye that is converted to a purple, water insoluble formazan in the mitochondria of living cells only. Upon solubilization of the resulting formazan crystals with isopropanol, the absorbance of the solution was monitored at 540 nm. The values correlate directly to the number of living cells remaining in the culture at the completion of the five day incubation. The inhibitory activity of the compound was monitored on the virus-infected cells and was expressed as EC50 and EC90. These values represent the amount of the compound required to protect 50% and 90%, respectively, of the cells from the cytopathogenic effect of the virus. The toxicity of the compound was measured on the mock-infected cells and was expressed as CC50, which represents the concentration of compound required to inhibit the growth of the cells by 50%. The selectivity index (SI) (ratio CC50/EC50) is an indication of the selectivity of the anti-HIV activity of the inhibitor. Wherever results are reported as e.g. pEC50 or pCC50 values, the result is expressed as the negative logarithm of the result expressed as EC50 or CC50 respectively.
(Cytopathic effects are the visible damage that an infection or toxin causes in cultured cells.)
In the case of `Cn1c2ccc(N3CCOCC3)cc2c2c1cc(C#N)c(=O)n2-c1ccc([N+](=O)[O-])cc1` [Compound 3, 8-morpholin-5-methyl-1-(4-nitro-phenyl)-2-oxo-2,5-dihydro-1H-pyrido[3,2-b]indole-3-carbonitrile], the concentration giving a half-maximal response (EC50) – broadly, the concentration at which the effect is half-maximal – is 2510 nM.

For `CN1CCN(c2ccc3c(c2)c2c(cc(C#N)c(=O)n2-c2ccc([N+](=O)[O-])cc2)n3C)CC1` [Compound 4], the half-maximal effective concentration (EC50) was 316 nM.

With `CN(C)CCCN(C)c1ccc2c(c1)c1c(cc(C#N)c(=O)n1-c1ccc([N+](=O)[O-])cc1)n2C` [Compound 7, 8-[(3-Dimethylamino-propyl)-methylamino]-5-methyl-1-(4-nitro-phenyl)-2-oxo-2,5-dihydro-1H-pyrido[3,2-b]indole-3-carbonitrile], the EC50 was 158 nM. For `Cn1c2ccc(N)cc2c2c1cc(C#N)c(=O)n2-c1ccc([N+](=O)[O-])cc1` [Compound 8] the value was 20000 nM; for `COC(=O)c1ccc2c(c1)c1c(cc(C#N)c(=O)n1-c1ccc(N)cc1)n2C` [Compound 9], 15800 nM. Consider `COC(=O)c1ccc2c(c1)c1c(cc(C#N)c(=O)n1-c1ccc([N+](=O)[O-])cc1)n2C` [Compound 12], for which the EC50 is 2000 nM. For `Cn1c2cc(F)c(F)cc2c2c1cc(C#N)c(=O)n2-c1ccc([N+](=O)[O-])cc1` [Compound 15] the value was 398 nM; for `COc1cc2c(cc1F)c1c(cc(C#N)c(=O)n1-c1ccc([N+](=O)[O-])cc1)n2C` [Compound 16], 3980 nM. In turn, `CN(C)CCCOc1ccc2c(c1)c1c(cc(C#N)c(=O)n1-c1ccc([N+](=O)[O-])cc1)n2C` [Compound 18, 8-[(3-Dimethylamino-propyl)-oxy]-5-methyl-1-(4-nitro-phenyl)-2-oxo-2,5-dihydro-1H-pyrido[3,2-b]indole-3-carbonitrile] showed an EC50 of 251 nM. The compound `Cc1ccc2c(c1)c1c(cc(C#N)c(=O)n1-c1ccc([N+](=O)[O-])cc1)n2C` [Compound 26] showed a concentration for a half-maximal effect (EC50) of 15800 nM.

As to `COc1ccc2c(c1)c1c(cc(C#N)c(=O)n1-c1ccc([N+](=O)[O-])cc1)n2C` [Compound 27, 8-methoxy-5-methyl-1-(4-nitro-phenyl)-2-oxo-2,5-dihydro-1H-pyrido[3,2-b]indole-3-carbonitrile], a half-maximal response (EC50) required 79.4 nM. In turn, `N#Cc1cc2[nH]c3cc(F)c(F)cc3c2n(-c2ccc([N+](=O)[O-])cc2)c1=O` [Compound 28] showed an EC50 of 2510 nM.

In the case of `Cn1c2ccc(O)cc2c2c1cc(C#N)c(=O)n2-c1ccc([N+](=O)[O-])cc1` [Compound 29, 8-hydroxy-5-methyl-1-(4-nitro-phenyl)-2-oxo-2,5-dihydro-1H-pyrido[3,2-b]indole-3-carbonitrile], a half-maximal response (EC50) required 200 nM. For `Cn1c2cc(O)ccc2c2c1cc(C#N)c(=O)n2-c1ccc([N+](=O)[O-])cc1` [Compound 32] the value was 1260 nM.
